Assay results as given in patent US20160081978A1, “PHARMACEUTICAL COMPOSITION CONTAINING LIRIODENDRON TULIPIFERA L. EXTRACT FOR TREATING CHRONIC MYELOGENOUS LEUKEMIA” (CHO DANG PHARM. CO., LTD., priority 2013, published 2016).

Experiments:
Test in all cases: XTT cell viability assay, inhibition of multiplication of leukemia cell line
Format in all cases: cell-based
[1] = system: Ba/F3 mother cell line; settings: 1 mg/ml of CD-200, 1 μM of CD-EPT, 48 hours
Experimental: (§1) For measuring the cell viability indicating the inhibition of multiplication, in vitro XTT assay has been employed. […] To find out the selective inhibition of T315I enzyme variant from BCR-ABL fusion gene, the cell lines have been incubated for 48 hours at 37° C. After incubation, the sample has been treated with XTT formazan (WEL GENE) for 4 hours at 37° C. Finally, the cell viability has been measured using ELISA through the absorbance at 620 nm, 540 nm (FIG. 1).

[2] = system: Ba/F3(BCR/ABL) cell line; settings: 1 mg/ml of CD-200, 1 μM of CD-EPT, 48 hours
Experimental: as §1

[3] = system: Ba/F3 (BCR/ABL-T315I) cell line
Text: For measuring the cell viability indicating the inhibition of multiplication, in vitro XTT assay has been employed. […] Finally, the cell viability has been measured using ELISA through the absorbance at 620 nm, 540 nm (FIG. 1).

C=C1C(=O)O[C@@H]2/C=C(\C)CC/C=C(\C)C[C@@H](OC(C)=O)[C@@H]12 [CD-EPT, epi-tulipinolide]
inhibition of cell growth (cell viability) [1]: effectively inhibit the cell growth | inhibition of cell growth (cell viability) [2]: cannot significantly inhibit the cell growth | inhibition of cell growth compared to Imatinib ([3]; 1 μM of Imatinib, 1 mg/ml of CD-200, 1 μM of CD-EPT, Ba/F3 (BCR/ABL-T315I) cell line): effective inhibition of cell growth compared to Imatinib | inhibition of cell growth (cell viability) ([3]; 1 mg/ml of CD-200, 1 μM of CD-EPT, 48 hours, XTT, Ba/F3 (BCR/ABL-T315I) cell line): effectively inhibit the cell growth | IC50 ([3]; Ba/F3 (BCR/ABL-T315I) mutant, XTT, 48 hours): 800 nM | effective inhibition capability compared to Imatinib ([3]; Ba/F3 (BCR/ABL-T315I) mutant, from IC50 values): 5 times
